The source of these data is patent publication US20240254114A1, “PREPARATION OF FUSED AZOLE DERIVATIVES AS NOVEL DIACYLGLYCERIDE 0-ACYLTRANSFERASE 2 INHIBITORS” (Merck Sharp & Dohme LLC, priority 2022, published 2024).

The structures appear in SMILES notation.

In one assay the target is human DGAT2 (Homo sapiens (Human), UniProt Q96PD7). The assay is described as follows: DGAT2 Enzymatic Activity Assay. The settings on record: Human DGAT2 IC50, hDGAT2 membrane prep from Sf-9 cells; 13C18-triolein product by LC/MS/MS.
human DGAT2, sequence (Q96PD7 whole entry): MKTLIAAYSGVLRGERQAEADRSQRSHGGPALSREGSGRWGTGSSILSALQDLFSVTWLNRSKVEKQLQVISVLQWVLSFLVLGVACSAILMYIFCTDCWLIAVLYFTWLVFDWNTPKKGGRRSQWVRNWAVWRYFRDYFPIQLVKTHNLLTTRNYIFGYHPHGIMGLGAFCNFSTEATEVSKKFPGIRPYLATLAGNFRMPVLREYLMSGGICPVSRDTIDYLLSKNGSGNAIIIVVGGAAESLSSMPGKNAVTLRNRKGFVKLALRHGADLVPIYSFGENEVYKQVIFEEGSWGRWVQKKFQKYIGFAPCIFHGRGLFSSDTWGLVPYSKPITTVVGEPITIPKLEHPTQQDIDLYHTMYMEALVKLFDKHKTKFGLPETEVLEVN
Protocol: Sf-9 insect cells were maintained in Grace's insect cell culture medium with 10% heated-inactivated fetal bovine serum, 1% Pluronic F-68 and 0.14 μg/ml Kanamycine sulfate at 27° C. in a shaker incubator. After infection with untagged baculovirus expressing human DGAT2 (hDGAT2) at multiplicity of infection (MOI) 3 for 48 hours, cells were harvested. Cell pellets were suspended in buffer containing 10 mM Tris-HCl pH 7.5, 1 mM EDTA, 250 mM sucrose and Complete Protease Inhibitor Cocktail (Sigma Aldrich), and sonicated on ice. Cell debris were removed by centrifugation at 2000×g for 15 minutes. Membrane fractions were isolated by ultracentrifugation (100,000×g), resuspended in the same buffer, and frozen (−80° C.) for later use. The protein concentration was determined with the Pierce™ BCA Protein Assay Kit (Thermo Fisher Scientific).
LC/MS/MS analyses were performed using Thermal Fisher's LX4-TSQ Vantage system. This system consists of an Agilent binary high-performance liquid chromatography (HPLC) pump and a TSQ Vantage triple quadrupole MS/MS instrument. For each sample, 2 μL samples from the top organic layer of in-plate liquid-liquid extraction were injected onto a Thermo Betabasic C4 column (2.1 mm×20 mm, 5 μm particle size). The samples were then eluted using the following conditions; mobile phase: Isopropanol: acetonitrile/10 mM ammonium formate=50/35/15 (v/v/v), flow rate: 0.8 mL/min, temperature: 25° C. Data was acquired in positive mode using a heated electrospray ionization (HESI) interface. […] The peak area was integrated by Xcalibur Quan software. The ratio between the ^13C18 triolein generated in the reaction and spiked in internal standard ^13C21-triolein was used to generate percentage inhibition and IC50 values. […] DGAT2 activity was determined by measuring the amount of enzymatic product ^13C18-triolein (^13C-1,2,3-Tri(cis-9-octadecenoyl)glycerol) using the membrane prep mentioned above. The assay was carried out in ABgene 384-well assay plates in a final volume of 25 μL at rt.
In turn, `Cc1c(Oc2ncc(Cl)cc2OCC(F)F)cnc2nc(C(=O)NC3(C)CCS(=O)(=O)CC3)n(C)c12` [Example 84, 6-[[5-Chloro-3-(2,2-difluoroethoxy)-2-pyridyl]oxy]-1,7-dimethyl-N-(4-methyl-1,1-dioxo-thian-4-yl)imidazo[4,5-b]pyridine-2-carboxamide] gave an IC50 of 7.8 nM. `Cc1nc2nc(C(=O)NC3(C)CCS(=O)(=O)CC3)n(C)c2cc1Oc1ncc(Cl)cc1OCC(F)F` [Example 86, 6-[[5-Chloro-3-(2,2-difluoroethoxy)-2-pyridyl]oxy]-1,5-dimethyl-N-(4-methyl-1,1-dioxo-thian-4-yl)imidazo[4,5-b]pyridine-2-carboxamide] came in with an IC50 of 39 nM. On the same count and under the same terms, to `Cn1c(C(=O)NC2(C)CCS(=O)(=O)CC2)nc2cnc(Oc3ncc(Cl)cc3OCC(F)F)nc21` [Example 88, 2-[[5-Chloro-3-(2,2-difluoroethoxy)-2-pyridyl]oxy]-9-methyl-N-(4-methyl-1,1-dioxo-thian-4-yl)purine-8-carboxamide] belongs 58 nM.

The molecule `Cn1c(C(=O)NC2(C)CCS(=O)(=O)CC2)nc2ncc(Oc3ncc(Cl)cc3OCC(F)F)nc21` [Example 90, 6-((5-Chloro-3-(2,2-difluoroethoxy)pyridin-2-yl)oxy)-1-methyl-N-(4-methyl-1,1-dioxidotetrahydro-2H-thiopyran-4-yl)-1H-imidazo[4,5-b]pyrazine-2-carboxamide] returned an IC50 of 4.1 nM.

Take `CC1(NC(=O)c2nc3ccc(Oc4ncccc4OCC(F)(F)F)cc3s2)CCS(=O)(=O)CC1` [Example 91, N-(4-Methyl-1,1-dioxidotetrahydro-2H-thiopyran-4-yl)-6-((3-(2,2,2-trifluoroethoxy)pyridin-2-yl)oxy)benzo[d]thiazole-2-carboxamide]: the IC50 is 1.3 nM. The same measure, in the same setting: to `CC1(NC(=O)c2nc3ccc(Oc4ncc(Cl)cc4OCC(F)F)nc3s2)CCS(=O)(=O)CC1` [Example 94, 5-((5-Chloro-3-(2,2-difluoroethoxy)pyridin-2-yl)oxy)-N-(4-methyl-1,1-dioxidotetrahydro-2H-thiopyran-4-yl)thiazolo[5,4-b]pyridine-2-carboxamide] belongs 2 nM. Same read-out and setting: to `CC1(NC(=O)c2nc3cnc(Oc4ncc(Cl)cc4OCC(F)F)cc3s2)CCS(=O)(=O)CC1` [Example 97, 6-[[5-chloro-3-(2,2-difluoroethoxy)-2-pyridyl]oxy]-N-(4-methyl-1,1-dioxo-thian-4-yl)thiazolo[4,5-c]pyridine-2-carboxamide] belongs 2.5 nM; to `CC1(NC(=O)c2nc3ncc(Oc4ncccc4OCC(F)(F)F)cc3o2)CCS(=O)(=O)CC1` [Example 98, N-(4-methyl-1,1-dioxidotetrahydro-2H-thiopyran-4-yl)-6-((3-(2,2,2-trifluoroethoxy)pyridin-2-yl)oxy)oxazolo[4,5-b]pyridine-2-carboxamide], 681 nM; to `Cn1c(C(=O)NC2(C)CCS(=O)(=O)CC2)cc2ccc(Oc3ncc(Cl)cc3OCC(F)F)nc21` [Example 99, 6-((5-Chloro-3-(2,2-difluoroethoxy)pyridin-2-yl)oxy)-1-methyl-N-(4-methyl-1,1-dioxidotetrahydro-2H-thiopyran-4-yl)-1H-pyrrolo[2,3-b]pyridine-2-carboxamide], 1.1 nM.

The same assay, now with this note: read-out: Human DGAT2 IC50; hDGAT2 membrane prep from Sf-9 cells; 13C18-triolein product by LC/MS/MS.
Consider `Cn1c(C(=O)NC2(C)CCS(=O)(=O)CC2)nc2ncc(Oc3ncc(F)cc3OCC(F)(F)F)cc21` [Example 83, 6-[[5-fluoro-3-(2,2,2-trifluoroethoxy)-2-pyridyl]oxy]-1-methyl-N-(4-methyl-1,1-dioxo-thian-4-yl)imidazo[4,5-b]pyridine-2-carboxamide], for which the IC50 turned out to be 12 nM. Turning to `Cc1c(Oc2ncc(F)cc2OCC(F)(F)F)cnc2nc(C(=O)NC3(C)CCS(=O)(=O)CC3)n(C)c12` [Example 85, 6-[[5-fluoro-3-(2,2,2-trifluoroethoxy)-2-pyridyl]oxy]-1,7-dimethyl-N-(4-methyl-1,1-dioxo-thian-4-yl)imidazo[4,5-b]pyridine-2-carboxamide], the IC50 is 175 nM. On the same count and under the same terms, to `Cc1nc2nc(C(=O)NC3(C)CCS(=O)(=O)CC3)n(C)c2cc1Oc1ncc(F)cc1OCC(F)(F)F` [Example 87, 6-[[5-fluoro-3-(2,2,2-trifluoroethoxy)-2-pyridyl]oxy]-1,5-dimethyl-N-(4-methyl-1,1-dioxo-thian-4-yl)imidazo[4,5-b]pyridine-2-carboxamide] belongs 25 nM; to `Cn1c(C(=O)NC2(C)CCS(=O)(=O)CC2)nc2cnc(Oc3ncc(F)cc3OCC(F)(F)F)nc21` [Example 89, 2-[[5-fluoro-3-(2,2,2-trifluoroethoxy)-2-pyridyl]oxy]-9-methyl-N-(4-methyl-1,1-dioxo-thian-4-yl)purine-8-carboxamide], 25 nM; to `CC1(NC(=O)c2nc3ccc(Oc4ncccc4OCC(F)(F)F)cc3s2)CS(=O)(=O)C1` [Example 92, N-(3-methyl-1,1-dioxo-thietan-3-yl)-6-[[3-(2,2,2-trifluoroethoxy)-2-pyridyl]oxy]-1,3-benzothiazole-2-carboxamide], 12 nM. As for `O=C(N[C@H]1CCOC1)c1nc2ccc(Oc3ncccc3OCC(F)(F)F)cc2s1` [Example 93, N-[(3S)-tetrahydrofuran-3-yl]-6-[[3-(2,2,2-trifluoroethoxy)-2-pyridyl]oxy]-1,3-benzothiazole-2-carboxamide], the IC50 was 472 nM. For the molecule `CC1(NC(=O)c2nc3ccc(Oc4ncc(Cl)cc4OCC(F)F)nc3s2)CS(=O)(=O)C1` [Example 95], the IC50 came out at 10 nM. Regarding `O=C(N[C@H]1CCCC(F)(F)[C@@H]1O)c1nc2ccc(Oc3ncc(Cl)cc3OCC(F)F)nc2s1` [Example 96, 5-((5-chloro-3-(2,2-difluoroethoxy)pyridin-2-yl)oxy)-N-((1S,2R)-3,3-difluoro-2-hydroxycyclohex-yl)thiazolo[5,4-b]pyridine-2-carboxamide], the IC50 amounted to 3.3 nM.

By IC50 is commonly meant the concentration that gives 50% inhibition.
